This is an account of results in patent US6969590B2, “Use of a polypeptide for treatment of pruritus in animals” (Zengen, Inc., priority 2001, dated 2005).

In one assay the test system is IL-6. As to the kind of experiment: IL-6 production by activated N9 microglia. Particulars: microglia stimulated with LPS+IFN-γ for 24 hr, micromolar concentrations. It counts as cell-based, murine. The procedure: The N9 clone of murine microglial cells was obtained by immortalization of embryonic brain cultures with the 3RV retrovirus carrying an activated v-myconcogene. N9 cells were cultured in T-75-cm^2 culture flasks (Corning, Cambridge, Mass.) and maintained at 37° C. in a humidified incubator under 5% CO2 atmosphere in RPMI 1640 supplemented with 2 mM L-glutamine, 50 U/mL penicillin G, 50 μg/mL streptomycin sulfate (GIBCO-BBL, Paisley, UK), and 10% heat-inactivated fetal bovine serum (FBS, Hyclone Lab, Inc., Logan, Utah) until experiments were performed. Cells were used between the first and the tenth passage.
Sub-confluent microglial cells were washed twice with phosphate-buffered saline (PBS) and incubated with trypsin 0.025% and ethylenediaminetetraacetate (EDTA) 0.02% without calcium and magnesium for 3 min. at 37° C. to detach the cells from the culture flask. Cells were then resuspended in medium and incubated in 24-well tissue-culture plates at a concentration of 2×10^5 cells/mL for 16 h in a humidified incubator (37° C., 5% CO2). Growth medium was removed and cell monolayers were stimulated with 10 ng/mL lipopolysaccharide (LPS, from Escherichia coli 055:B5, Sigma Chemical Co., St. Louis, Mo.) plus 1 U/ml, murine IFN-γ (Sigma). To test effects of melanocortin peptides, concentrations (1, 10, 25, 50 and 100 μM) of α-MSH (1-13), α-MSH (11-13), and ACTH (1-24) (Sigma) were dissolved in medium and added to wells 10 min before treatment with LPS+IFN-γ. […] Viability of cells was assessed by trypan blue exclusion for each experimental condition; it was consistently >98%. […]
TNF-α bioactivity was measured in supernatants of cell cultures by standard cytotoxicity assay using L929 cells and recombinant human TNF-α (Sigma) as standard. […] IL-6 was measured using a commercial murine enzyme-linked immunosorbent assay (ELISA: RPN 2714, Amersham, Little Chalfont, UK).
Effects of melanocortin peptides on cytokine and NO production were evaluated by repeated measures analysis of variance followed by Dunnet's test for specific comparisons. […]

The next assay concerns human neutrophils. The assay can be described thus: C. albicans killing by human neutrophils. It counts as cell-based. Conditions: 2 hours at 37° C., vs. medium. As to the method:
Venous blood (20 ml) from healthy volunteers was anticoagulated with heparin. Neutrophils were isolated using dextran sedimentation and Ficoll-Hypaque (Sigma Chemical Co., St. Louis, Mi., USA) centrifugation. Erythrocytes were lysed via hypotonic shock. Neutrophils represented at least 97% of the cell suspension. Cell viability, estimated by trypan blue exclusion, was >98%. Neutrophils were suspended to a final concentration in HBSS. C. albicans (1×10^6) were opsonized with human AB serum in a shaking water bath for 30 minutes at 37° C. Organisms were then incubated with neutrophils in medium or in medium with α-MSH (1-13) or α-MSH (11-13) in concentrations of 10^−15 M to 10^−4 M in a shaking water bath for 2 hours at 37° C. After incubation, the culture tubes were placed on ice to stop growth and extracellular organisms were washed twice with centrifugation at 1000×g at 4° C. A 2.5% sodium desoxycholoate solution was added to obtain a suspension of 10^6 cells/ml. Two 1/100 serial dilutions in HBSS were made to obtain a final suspension of 100 cells/ml. Aliquots of 1 ml were dispensed on blood agar plates and incubated for 48 hours at 37° C. Colony forming units (CFUs) were counted at the end of the incubation period. Experiments were run in triplicate and repeated using blood from 5 different donors.

In assay [1] the test system is edema caused by intradermal injection of human recombinant IL-1β in the mouse ear. As to the kind of experiment: Ear edema by intradermal recombinant human IL-1β. The format is in vivo, BALB/c mice. Conditions: centrally administered peptide, propranolol injected centrally. The procedure: Female BALB/c mice (Simonsen Laboratories, Gilroy, Calif.), 7-8 weeks old, were housed at 23-25° C. in groups not exceeding five animals per cage [28 cm (L)×18 cm (W)×13 cm (H)]. Before the experiments they were acclimatized for not less than 1 week before experimentation to standard lighting and temperature conditions with food and water freely available.
Mice were anesthetized with 10% pentobarbital sodium solution (1 mg/mouse, 50 mg/ml, Nembutal sodium solution; Abbott Laboratories, North Chicago, Ill.). Baseline ear thickness measurements were taken with a spring-loaded micrometer (Swiss Precision Instruments, Los Angeles, Calif.). Ear thickness was expressed in cubic centimeters and was measured at least twice at each time point. The average thickness of unstimulated ears was […]. Inflammation was induced by intradermal injection of 20 μl of recombinant human IL-1β (1500 U; Genzyme, Cambridge, Mass.) in one ear of each mouse using a 28 gauge needle (Hiltz et al., 1992). Measures of ear thickness were repeated 4 and 6 hr later, while the mice were under sodium pentobarbital anesthesia. Edema was assessed by subtracting baseline measures from 4 and 6 hr readings for each animal. α-MSH (11-13) (1663.9 gm/mol; Peninsula Laboratories, Belmont, Calif.) or α-MSH (11-13) (383.48 gm/mol; Peninsula Laboratories) dissolved in saline was injected intracerebroventricularly (20 μl) using procedures described previously (Lipton et al., 1991; Lipton and Catania, 1993).
Several agents were administered at the time of ear challenge to pharmacologically block certain receptors: atropine (Sigma Chemical Co.; 150 μg i.p.), a muscarinic receptor blocker that acts on autonomic end-organ receptors, was chosen because of links between inflammation and modulation of pain and the finding that muscarinic antagonists increase pain threshold (Hartvig et al., 1989); phentolamine (Sigma; 150 μg i.p.) an agent that competes for occupancy of α-adrenergic receptors; propranolol (Sigma; 150 μg, i.p.; 30 μg, i.c.v.), a nonspecific competitive antagonist for β-adrenergic receptors.
Because of the size of the experiments and the requirement for several shipments of animals over time, several experiments were performed, each with complete treatment and control groups drawn from the same shipment of mice. Omnibus analysis of variance techniques (Dynastat, Washington, D.C.) were used to test overall differences among group means. Tukey's protected t test was used to compare individual means. Probability values of <0.05 were considered significant.

For the sequence SYSMEHFRWGKPV [α-MSH (1-13)], the “reduction of production of IL-6” value with IL-6 was determined as 31%. Further, the “killing of C. albicans by human neutrophils” value with human neutrophils is recorded as “enhanced the killing”. The “inhibition of ear edema” value in assay [1] (4 hr) was found to be 36%; in assay [1] (6 hr) it was 32%.
